Reference: US20220175762A1, “IMMUNE MODULATORY COMPOSITIONS AND METHODS FOR TREATING CANCERS” (Birdie Biopharmaceuticals, Inc., priority 2019, published 2022)

Key:
[1] = system: C26 colon tumor cell line; assay: In vivo tumor cell killing, C26 syngeneic tumor model, cyclophosphamide with TLRL combination therapy; parameters: dose or concentration left out as unconfirmed; conditions: C26 cells s.c. in BALB/c mice; cyclophosphamide i.p., TLRL (resiquimod) i.v., or both; once weekly for three times; FIG. 1B
Method: FIG. 1A-D depicts evaluation of the antitumor effects of Cyclophosphamide/TLRL combination therapy in syngeneic tumor model. FIG. 1A: Scheme of therapy protocol developed to treat C26 tumor. The treatment was initiated at d10 with tumor size 100-120 mm^3 following tumor challenges, and was administered weekly for 3 cycles starting at day 10. FIG. 1B: Antitumor effects of systemic TLRL (Resiquimod) in C26 tumor model. 4×10^5 cells were inoculated subcutaneously in Balb/c mice. After the tumor was allowed to grow for 10 days, groups of 8 mice were treated with Vehicle or with intraperitoneally administration of 1 mg of Cyclophosphamide, or with intravenously administered 1.6 g of TLRL or combination therapy at the dose shown. The compound was administered weekly for three cycles. The data are represented by the median tumor volume measurements of each group. Data for each group of 8 mice are expressed as means±SD. Statistical comparisons were performed using Student's t-Test. […]
All BALB/c mice were maintained under specific pathogen free conditions and used between 6-16 weeks of age in accordance to the animal experimental guidelines set by the Institutional Animal Care and Use Committee. […] Tumor volumes were measured along three orthogonal axes (x, y, and z) and calculated as tumor volume=(xyz)/2. […]

[2] = system: IFNα inducible genes MX2, ISG15 and IRF7; assay: IFNα inducible gene expression (quantitative RT-PCR) in draining lymph nodes and spleen of treated mice; format: in vivo; conditions: draining LNs and spleen of C26 tumor-bearing Balb/c mice, second day of second weekly treatment, FIG. 3
Method: Expression of IFNα inducible genes in dLN and spleen of treated mouse. RNA was isolated from draining lymph nodes and spleen after second treatment with TLRL or cyclophosphamide or combination therapy and relative expression of IFNα inducible genes MX2, ISG15 and IRF7 were determined by quantitative RT-PCR. Values indicate the mRNA expression of indicated IFNα inducible genes relative to housekeeping gene Actin.
Balb/c mice, 6-8 weeks of age, female, purchased from Vital River Beijing, C26 cells were injected s.c. in the back of anesthetized mice. Treatment was started when tumor volumes reached 100-120 mm^3, i.p. injections of cyclophosphamide or i.v. injections of […] of TLRL (resiquimod) or a combination of the treatments were given once weekly. On second day of second treatment, (that is, on the eighth day) draining LNs and spleen from treated mice were dissected and RNA was extracted using TRIzol reagent. After cDNA was reversed-transcribed, the quantitative Real-Time PCR was performed and IFNα inducible gene expression data were normalized relative to geometric mean of […] housekeeping genes (Actin): […]

[3] = system: CD45^+ cell infiltration in C26 tumor; assay: Immunohistochemistry of CD45 positive cells in tumors of treated mice; format: in vivo; parameters: dose or concentration left out as unconfirmed; conditions: C26 tumor in Balb/c mice, tumor taken on second day of second weekly treatment, cyclophosphamide i.p., TLRL i.v., FIG. 2
Method: Histological characterization of CD45 positive cells were performed in treated mice. Tumor samples were obtained from mice treated with TLRL, cyclophosphamide or TLRL/cyclophosphamide. Histological sections were counterstained with hematoxylin and eosin (H&E).
Balb/c mice, 6-8 weeks of age, female, purchased from Vital River Beijing, C26 cells were injected s.c. in the back of anesthetized mice. Treatment was started when tumor volumes reached 100-120 mm^3, i.p. injections of cyclophosphamide or i.v. injections of 1.6 g of TLRL (resiquimod) or combination were given once weekly. On second day of second treatment, tissue specimens of the tumor from treated mice were surgically removed, fixed in 4% buffered formaldehyde for 24 h, processed into paraffin, then sectioned at 5 μm. For immunohistochemistry, tissue sections were deparaffinised followed by antigen-retrieval in Tris-EDTA buffer (0.01 M pH 9.0) at high temperature (water bath, 30 minutes at 98° C.). […] After washing with PBS three times, secondary antibody goat antibody rat HPR was applied. Standard DAB (3,3′-diaminobenzidine) kit was used for visualization and section was counterstained with H&E used according to the protocols recommended by the manufacturer.

CCOCc1nc2c(N)nc3ccccc3c2n1CC(C)(C)O [TLRL (resiquimod), 4-amino-2-(ethoxymethyl)-a,a-di-methyl-1H-imidazo[4,5-c]quinoline-1-ethanol]
effect in reducing tumor volume [1]: similar
IFNα inducible gene expression (MX2, ISG15, IRF7) relative to Actin [2]: Upregulating IFNα inducible gene clusters were observed
IFNα inducible gene expression (MX2, ISG15, IRF7) relative to Actin ([2]; listed as TLRL): increased IFNα inducible gene expression
infiltration of CD45^+ cells in tumor microenvironment [3]: significant numbers of CD45^+ cell were infiltrated
infiltration of CD45^+ cells in tumor microenvironment ([3]; listed as TLRL): increased infiltration of activated immune cells (CD45^+)

O=P1(N(CCCl)CCCl)NCCCO1 (stereo not drawn) [cyclophosphamide]
effect in reducing tumor volume [1]: similar
